Data reported in patent US7151168B2, “Ecdysone receptors and methods for their use” (Pioneer Hi-Bred International, Inc., priority 1998, dated 2006).
“And” between values parts separate entries of the source, which are not always exact repeats. Equal values may be shown once.

Tests used:
Assay type in all cases: cell-based, Ostrinia nubilalis
[1] = test system: USP receptor (plasmid PHP10967) and C1::LexA::ecdysone fusion protein (plasmid PHP10956); assay: Transient transactivation assay, luciferase reporter PHP11545, maize embryogenic suspension cells, chimeric EcR plus USP (NosCLO/NosUSP)
From the text: (§1) To examine the effect of the Ecdysone and USP receptors on promoter-driven expression, a transient transactivation assay was developed using a cell suspension culture derived from maize embryos. (See also, U.S. Pat. No. 5,886,244.) A reporter plasmid, designated PHP11545, was constructed in the pSP72 vector and contained 8 LexA operators, a minimal fragment of the CaMV-59 constitutive promoter, the Omega leader sequence, Adh intron 1, the coding sequence for firefly luciferase, and the PinII terminator sequences.
(§2) Two DNA constructs encoding effector proteins were generated. A chimeric Ecdysone receptor construct designated PHP10956 was generated. PHP10956 contains the Nopaline synthase (NOS) promoter, the Omega leader sequence, Adh1 intron, and the potato protease inhibitor II (PinII) termination sequences cloned into a pUC vector. A fragment encoding a fusion between the maize C1 transactivation domain, the LexA DNA binding domain, and the ligand-binding domain of the Ecdysone receptor was cloned downstream of the intron.
A DNA construction containing the USP coding sequences was generated and designated PHP10967. PHP10967 contains the Nos promoter, the Omega leader sequence, Adh1 intron, and the PinII terminator sequences cloned into the pUC vector. The nucleic acid sequence encoding the USP coding region was inserted downstream of the intron.
(§3) These constructs were introduced into embryogenic suspension cells by microprojectile bombardment as described by Unger et al. (1993) The Plant Cell 5:831–841. Plasmid DNA encoding effector and reporter sequences was mixed with 50 μl (15 mg/ml) of 1.0 μm tungsten microprojectiles. DNA was precipitated by addition of 50 μl 2.5 M CaCl2 and 20 μl 0.1M spermidine. Microprojectiles and precipitated DNA were centrifuged to a pellet and the supernatant was removed. The pellet was washed by sonication in the presence of 250 μl absolute ethanol, centrifuged and ethanol removed. Sixty μl of fresh absolute ethanol was added and this mixture sonicated to disperse the pellet. […]

[2] = test system: C1::LexA::ecdysone fusion protein (plasmid PHP10956; ligand-binding domain of the Ecdysone receptor)
From the text: as §1, §2
as §3, with “pellet. Ten μl aliquots of this microprojectile-DNA mixture were placed on each macrocarrier and bombarded into maize suspension cells using a helium-driven microprojectile gun, PDS-1000 (1100 psi rupture disk pressure).” for “pellet.”

[3] = test system: chimeric Ecdysone receptor: maize C1 transactivation domain, Gal4 DNA binding domain, ligand-binding domain of the Ecdysone receptor (PHP10512); assay: Stable transactivation assay, GAL4-responsive luciferase reporter PHP1654, leaf punches of T0 maize plants, PHP10512; conditions: 10 μM RH5992 in H2O, 16 hours; plasmid PHP10512, event 78; individual T0 plant; 20 μl of 200 μl extract
Experimental: (§4) To further examine the effect of the Ecdysone receptors on promoter-driven expression, a stable transactivation assay was performed using a chimeric Ecdysone receptor. DNA constructs were generated for the expression of both effector and reporter DNA sequences.
(§5) A reporter plasmid, designated PHP1654, was constructed in the pSP72 vector and contained 5 GAL4 responsive elements, a minimal CaMV-59 constitutive promoter, the Omega' leader sequence, Adh intron 1, the coding sequence for firefly Luciferase, and the PinII terminator sequences.
Two DNA constructions encoding chimeric Ecdysone receptor proteins were generated. The chimeric Ecdysone receptor construct designated PHP10512 contains the Nopaline synthase (NOS) promoter, the Omegá leader sequence, Adh1 intron, 355 promoter, PAT gene and the potato protease inhibitor II (PinII) termination sequences cloned into a pUC vector. A fragment encoding a fusion between the maize C1 transactivation domain, the Gal4 DNA binding domain, and the ligand-binding domain of the Ecdysone receptor was cloned downstream of the intron.
Immature embryos approximately 1.5 to 2.0 mm long from the Hi-II genotype (Armstrong and Phillips (1988) Crop Sci. 28:363–369) were bombarded with the PHP1654 reporter plasmid and either PHP10513 or PHP10512. As noted above, a selectable marker gene, PAT, was contained on PHP10513 and PHP10512. […]

[4] = test system: chimeric Ecdysone receptor: VP16 activation domain, Gal4 DNA binding domain, ligand-binding domain of the Ecdysone receptor (PHP10513); assay: Stable transactivation assay, GAL4-responsive luciferase reporter PHP1654, leaf punches of T0 maize plants, PHP10513; conditions: 10 μM RH5992 in H2O, 16 hours, individual T0 plant, 20 μl of 200 μl extract
Experimental: as §4, §5
The plasmid designated PHP10513 also contains the Nopaline synthase (NOS) promoter, the Omegá leader sequence, Adh1 intron, 355 promoter, PAT gene, and the potato protease inhibitor II (PinII) termination sequences cloned into a pUC vector. However, the fragment encoding the chimeric receptor immediately downstream of the intron, comprises a fusion between the VP16 activation domain, the Gal4 DNA binding domain, and the ligand-binding domain of the Ecdysone receptor.
Immature embryos approximately 1.5 to 2.0 mm long from the Hi-II genotype (Armstrong and Phillips (1988) Crop Sci. 28:363–369) were bombarded with the PHP1654 reporter plasmid and either PHP10513 or PHP10512. As noted above, a selectable marker gene, PAT, was contained on PHP10513 and PHP10512. The PAT gene confers resistance to the herbicide Bialophos. (Wohlleben et al. (1988) Gene 70:25–37.)
Embryos were bombarded using the protocols described in Tomes et al. (1994) Plant Cell, Tissue, and Organ culture, Fundamental Methods 197–213. Specifically, the Hi-II immature embryos were bombarded and cultured on selection medium as described by Songstad et al. 1993 Agronomy Abstracts 183. Plant regeneration from transgenic calli was performed according to the protocol of Armstrong and Phillips (1988) Crop Sci 28:363–369, except that bialaphos (3 mg/l) was added to each of the regeneration media. Plants were established in the greenhouse.
The transactivation of the luciferase reporter sequence by a chimeric Ecdysone receptor was assayed using standard protocols. […]

SMILES: CCc1ccc(C(=O)NN(C(=O)c2cc(C)cc(C)c2)C(C)(C)C)cc1 [RH5992, 3,5-dimethylbenzoic acid 1—1 (1,1-dimethylethyl)-2(4-ethylbenzoyl)hydrazide]
- Average Light Units (luciferase expression) ([1]; 10 μM RH5992, NosCLO/NosUSP, 0.02 μg each, 16 to 18 hours at 26° C., maize suspension cells): 201808 Light Units
- Fold Induction (luciferase) ([1]; 10 μM RH5992 vs no ligand, NosCLO/NosUSP, 0.02 μg each): 53x
- Transactivation of the LexA responsive luciferase reporter (PHP11545) ([1]; in the presence of the RH5992 ligand, USP (PHP10967) plus C1::LexA::ecdysone fusion (PHP10956)): 53 fold
- Average Light Units (luciferase expression) ([2]; 10 μM RH5992, NosCLO only, effector dose 0.02 μg, 16 to 18 hours at 26° C., maize suspension cells): 153613 Light Units
- Fold Induction (luciferase) ([2]; 10 μM RH5992 vs no ligand, NosCLO only, 0.02 μg): 8.4x
- Transactivation of the LexA responsive luciferase reporter gene (in words) ([2]; in the presence of the RH5992 ligand, only C1::LexA::ecdysone fusion protein (PHP10956), no USP): resulted in the transactivation of the LexA responsive luciferase reporter gene
- RH5992 treated (Light Units), luciferase activity [3]: 3771 Light Units and 1819 Light Units and 7742 Light Units and 1027 Light Units and 9742 Light Units and 2486 Light Units and 8494 Light Units and 3988 Light Units and 9265 Light Units and 6198 Light Units and 6293 Light Units and 1045 Light Units and 8354 Light Units and 4720 Light Units
- RH5992 treated (Light Units), luciferase activity ([4]; plasmid PH10513, event 30): 38093 Light Units and 26394 Light Units and 24632 Light Units and 33636 Light Units and 28213 Light Units and 22137 Light Units and 105341 Light Units and 44639 Light Units and 49279 Light Units and 83241 Light Units and 61320 Light Units and 130618 Light Units and 95166 Light Units and 35641 Light Units and 37955 Light Units and 38507 Light Units and 37855 Light Units and 42346 Light Units
- RH5992 treated (Light Units), luciferase activity ([4]; plasmid PHP10513, event 44): 605147 Light Units and 528950 Light Units and 303021 Light Units and 573842 Light Units and 417072 Light Units and 511220 Light Units and 290095 Light Units
- RH5992 treated (Light Units), luciferase activity ([4]; plasmid PHP10513, event 117): 90037 Light Units and 40005 Light Units and 149594 Light Units and 75379 Light Units and 49243 Light Units and 114913 Light Units and 57607 Light Units and 46075 Light Units
